Measured values: ChEMBL document CHEMBL1151320, “Isolation and characterization of novel endogenous digitalis-like factors in the ovary of the giant toad, Bufo marinus” (J Nat Prod, 1998)

Assay: Inhibition of dog kidney Sodium/potassium-transporting ATPase by ELISA
Set-up: species or system Canis lupus familiaris
For `C[C@]12C[C@@H](O)[C@H]3[C@@H](CC[C@]4(O)C[C@@H](OC(=O)CCCCCCCCCCCO)CC[C@]34CO)[C@@]1(O)CC[C@@H]2c1ccc(=O)oc1`, the IC50 was 0.12 µM. `C[C@]12C[C@@H](O)[C@H]3[C@@H](CC[C@]4(O)C[C@@H](OC(=O)CCCCC/C=C\CCCCCCO)CC[C@]34CO)[C@@]1(O)CC[C@@H]2c1ccc(=O)oc1` showed an IC50 of 0.1 µM. Work on `C[C@]12C[C@@H](O)[C@H]3[C@@H](CC[C@]4(O)C[C@@H](OC(=O)CCCCCCCCCCCCCO)CC[C@]34CO)[C@@]1(O)CC[C@@H]2c1ccc(=O)oc1` yielded an IC50 of 0.1 µM. For `C[C@]12C[C@@H](O)[C@H]3[C@@H](CC[C@]4(O)C[C@@H](O)CC[C@]34CO)[C@@]1(O)CC[C@@H]2c1ccc(=O)oc1`, the IC50 was 0.12 µM.
